Consider one substance from publication PMC6631481, “De Novo Design and In Vitro Testing of Antimicrobial Peptides against Gram-Negative Bacteria” (Pharmaceuticals, 2019).

No end group written: not given here.

Holding throughout (format): cell-based
In experiment [1] the test system is Escherichia coli ATCC 25922. As for the experimental part: The MICs of the designed cationic peptides against Escherichia coli ATCC 25,922 strains were determined by the broth microdilution method, as described by Hancock et al.. All MIC evaluations were performed using Luria Bertani (LB) medium. Briefly, a range of each peptide concentrations (100 µg/mL, 50 µg/mL, 25 µg/mL, 12.5 µg/mL, 6.25 µg/mL, 3.125 µg/mL) was prepared by serial dilution in NaCl-depleted LB medium and added to an equal volume (250 µl) of exponentially grown bacterial culture, so that final bacterial suspension contained 5 × 10^5 CFU/mL. The samples were incubated in 2 mL polypropylene microtubes at 37 °C overnight at 300 rpm. The MIC was defined as the concentration at which no microbial growth was detected spectrophotometrically, via readings of optical density (OD) at 600 nm (Biotek ELX800 microplate reader). Growth medium containing only bacterial cells was used as a negative control. Each MIC test was carried out in two replicates and repeated three times.

For the next experiment, the system named is A. baumannii Josh 230. Kind of experiment: microbe, parasite or virus in culture. The following applies: Josh 230. The source says: (§1) The following strains were used: P. aeruginosa (ATCC 27,853 and resistant strains: J4228 (R: Meropenem), BB2013-100 (FQR)); A. baumannii (Josh 28 and resistant strain Josh 230 (OXA-48); E. cloacae (resistant strains: BB2012-181(R: Meropenem), BB2013-32 (FQR)); E. aerogenes (resistant strain St. L P63 (NDM-1), E. asburiae/cloacae (resistant strain St. L P23 (NDM-1), K. pneumonia (J3702 and resistant strains: BB2009-209 (KPC-2), Oschner KP-1), Escherichia coli (BW25113 (7636) and resistant strains: JW55034 (11430) (Tol neg), BB2013-30 (R:carbapenem), ARLG-1012 (NDM)). Susceptibility testing was performed using non-cation adjusted MHB broth and polypropylene plates. Testing was also done in the presence and absence of acetic acid and BSA.

The test system of the next experiment is A. baumannii Josh 28. Kind of experiment: microbe, parasite or virus in culture. The following applies: Josh 28.
Source text: as §1

The test system of a further experiment is E. aerogenes St. L P63. Briefly: microbe, parasite or virus in culture. Conditions: St. L P63.
Source text: as §1

The test system of another experiment is E. cloacae BB2012-181. Kind of experiment: microbe, parasite or virus in culture. Conditions: BB2012-181.
Source text: as §1

Another experiment deals with E. cloacae BB2013-32. Kind of experiment: microbe, parasite or virus in culture. The following applies: BB2013-32.
Source text: as §1

In a further experiment the test system is E. coli ARLG-1012. Kind of experiment: microbe, parasite or virus in culture. Conditions: ARLG-1012.
Source text: as §1

A further experiment relates to E. coli BB2013-30. Kind of experiment: microbe, parasite or virus in culture. The following applies: BB2013-30.
Source text: as §1

For another experiment, the system named is E. coli BW25113 (7636). Kind of experiment: microbe, parasite or virus in culture. The following applies: BW25113.
Source text: as §1

The test system of another experiment is E. coli JW55034 (11430). Kind of experiment: microbe, parasite or virus in culture. Conditions: phenotype Tol neg, non-cation adjusted MHB broth, polypropylene plates, meropenem by standard CLSI method.
Source text: as §1

The subject of the next experiment is K. pneumoniae BB2009-209. Briefly: microbe, parasite or virus in culture. The following applies: BB2009-209.
Source text: as §1

A further experiment has as its system K. pneumoniae J3702. Briefly: microbe, parasite or virus in culture. Conditions: J3702.
Source text: as §1

Experiment [2] concerns K. pneumoniae Oschner KP-1. Kind of experiment: microbe, parasite or virus in culture. The following applies: Oschner KP-1.
Source text: as §1

For a further experiment, the system named is P. aeruginosa ATCC 27853. Briefly: microbe, parasite or virus in culture. The following applies: ATCC 27853.
Source text: as §1

The test system of a further experiment is P. aeruginosa BB2013-100. Briefly: microbe, parasite or virus in culture. Conditions: BB2013-100.
Source text: as §1

Another experiment relates to P. aeruginosa J4228. Kind of experiment: microbe, parasite or virus in culture. The following applies: J4228.
Source text: as §1

Experiment [3] relates to E. asburiae/cloacae St. L P23. Briefly: organism not typed.
Source text: as §1

As for GWAKLITKAIKKI-NH2 [SP3], the “MIC At NaCl” value in experiment [1] was in the range of 25 to 50 µg/mL. In experiment [1], the “MIC Without NaCl” value was in the range of 12.5 to 25 µg/mL. For the same substance, the MIC came to 16 µg/mL against A. baumannii Josh 230; 4 µg/mL against A. baumannii Josh 28; 16 µg/mL against E. aerogenes St. L P63; 16 µg/mL against E. cloacae BB2012-181; 16 µg/mL against E. cloacae BB2013-32; 4 µg/mL against E. coli ARLG-1012. For the same substance, the MIC is 8 µg/mL with E. coli BB2013-30; 4 µg/mL against E. coli BW25113 (7636); 4 µg/mL in the experiment with E. coli JW55034 (11430); more than 32 µg/mL against K. pneumoniae BB2009-209; 16 µg/mL against K. pneumoniae J3702; more than 32 µg/mL in experiment [2]. Besides, the MIC in the experiment with P. aeruginosa ATCC 27853 is 8 µg/mL; against P. aeruginosa BB2013-100 it was 32 µg/mL; against P. aeruginosa J4228 it was 16 µg/mL; in experiment [3], 32 µg/mL.
